# Test results from patent US20060069132A1, “Azolecarboxamide herbicides” (priority 2004, published 2006).
# Columns and labels:
# rice [1] = experiment: Test C flooded paddy test; assay type: in vivo, Oryza sativa; settings: for Plant response rating, Rice: 500 g ai/ha, visual rating after 12 to 14 days
# Procedure, shortened: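 Plants were grown to the 1- to 4-leaf stage (2–18 cm) and then treated postemergence, or grown to the 2-leaf stage for the flooded paddy test. They were held in a greenhouse for 12 to 14 days and then scored by eye against controls, where 0 is no effect and 100 is complete control.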
# pigweed = experiment: Test C pre-/postemergence herbicide test; assay type: in vivo, Amaranthus retroflexus
# Procedure, shortened: (§1)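 Pre- and postemergence application, solvent/surfactant formulation; post at 1- to 4-leaf stage (2–18 cm). Greenhouse 12–14 d. Visual rating vs controls, 0 = no effect, 100 = complete control.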
# rice [2] = experiment: Test B pre-/postemergence herbicide test; assay type: in vivo, Oryza sativa; settings: preemergence; for Plant response rating, Rice: 500 g ai/ha, visual rating 0-100, 0 no effect, 100 complete control
# Procedure, shortened: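 Evaluation is visual, comparing treated with control plants on a scale where 0 means no effect and 100 means full control. Treatments were preemergence, or postemergence on seedlings 2–18 cm tall, and held 13–15 days in the greenhouse.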
# goosegrass = experiment: Test C pre-/postemergence herbicide test; assay type: in vivo, Eleusine indica
# Procedure, shortened: as §1
# redroot pigweed = experiment: Test A pre-/postemergence herbicide test; assay type: in vivo, Amaranthus retroflexus
# Procedure, shortened: (§2)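 Visual injury rating on a 0–100 scale (0 no effect, 100 complete control) versus untreated controls, about ten days after treatment in greenhouse. Pre: directed soil spray onto seeded sandy loam. Post: spray to runoff on plants 2–10 cm tall at one- to two-leaf stage.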
# large crabgrass = experiment: Test A pre-/postemergence herbicide test; assay type: in vivo, Digitaria sanguinalis
# Procedure, shortened: as §2
# giant foxtail = experiment: Test C pre-/postemergence herbicide test; assay type: in vivo, Setaria faberi
# Procedure, shortened: as §1
# barnyardgrass = experiment: Test C flooded paddy test; assay type: in vivo, Echinochloa crus-galli; settings: for Plant response rating, Barnyardgrass: 500 g ai/ha, visual rating after 12 to 14 days
# Procedure, shortened: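 Visual rating, 0 (no effect) to 100 (complete control), vs. controls at 12–14 d in greenhouse. Postemergence: 1–4-leaf plants, 2–18 cm. Paddy: flooded, barnyardgrass at 2-leaf stage.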
# lambsquarters = experiment: Test C pre-/postemergence herbicide test; assay type: in vivo, Chenopodium album
# Procedure, shortened: as §1
# [3] = 62 g ai/ha, scale 0 to 100 (0 no effect, 100 complete control)
# [4] = 125 g ai/ha, scale 0 to 100 (0 no effect, 100 complete control)
# [5] = 250 g ai/ha, scale of 0 to 100, 0 is no effect, 100 is complete control
# [6] = scale 0 to 100 (0 no effect, 100 complete control)
# [7] = 125 g ai/ha, scale 0 (no effect) to 100 (complete control), visual, 12 to 14 days, preemergence
# [8] = Postemergence, 250 g ai/ha, 0 to 100 scale, 0 no effect, 100 complete control
# [9] = Postemergence, 1000 g ai/ha, 0 to 100 scale, 0 no effect, 100 complete control
# [10] = Preemergence, 1000 g ai/ha, visual rating, 0 to 100 scale (0 no effect, 100 complete control)
# [11] = preemergence, 250 g ai/ha, visual injury, 0 to 100 scale (0 no effect, 100 complete control)
# [12] = 62 g ai/ha, preemergence, scale 0 to 100
# [13] = 250 g ai/ha, scale 0-100, preemergence
# [14] = Preemergence, 500 g ai/ha, scale 0 to 100, 0 no effect, 100 complete control
# [15] = Postemergence, 500 g ai/ha, 0 to 100 scale, 0 no effect, 100 complete control
# [16] = Postemergence, 2000 g ai/ha, 0 to 100 scale, 0 no effect, 100 complete control
# [17] = Preemergence, 2000 g ai/ha, visual rating, 0 to 100 scale (0 no effect, 100 complete control)
# [18] = preemergence, 500 g ai/ha, visual injury, 0 to 100 scale (0 no effect, 100 complete control)
compound,measurement,setting,value
CCn1nc(C(C)(C)C)cc1C(=O)Nc1cccc(SC)c1 [Compound 131],Rice plant response rating,rice [1]; [3],0
same,Rice plant response rating,rice [1]; [4],0
same,Rice plant response rating,rice [1]; [5],0
same,"Plant response rating, Rice",rice [1]; [6],10
same,"Plant response rating (0 = no effect, 100 = complete control), Pigweed","pigweed; 62 g ai/ha, preemergence",95
same,"Plant response rating, Pigweed",pigweed; [7],100
same,"Plant response rating, Rice",rice [2],50
same,"Plant response rating (0 = no effect, 100 = complete control), Goosegrass","goosegrass; 62 g ai/ha, preemergence",15
same,"Plant response rating, Goosegrass",goosegrass; [7],65
same,Pigweed plant response rating,redroot pigweed; [8],45
same,"Plant response rating, Pigweed",redroot pigweed; [9],75
same,Pigweed plant response rating,redroot pigweed; [10],90
same,Pigweed plant response rating,redroot pigweed; [11],40
same,"Crabgrass, Large plant response rating",large crabgrass; [8],20
same,"Plant response rating, Crabgrass, Large",large crabgrass; [9],40
same,"Crabgrass, Large plant response rating",large crabgrass; [10],85
same,"Crabgrass, Large plant response rating",large crabgrass; [11],20
same,"Plant response rating (0 = no effect, 100 = complete control), Foxtail, Giant","giant foxtail; 62 g ai/ha, preemergence",20
same,"Plant response rating, Foxtail, Giant",giant foxtail; [7],20
same,"Plant response rating, Foxtail, Giant","giant foxtail; 250 g ai/ha, scale 0 to 100 (0 no effect, 100 complete control), visual, 12 to 14 days, preemergence",45
same,Barnyardgrass plant response rating,barnyardgrass; [3],0
same,Barnyardgrass plant response rating,"barnyardgrass; 125 g ai/ha, scale of 0 to 100, 0 is no effect, 100 is complete control",0
same,Barnyardgrass plant response rating,barnyardgrass; [5],10
same,"Plant response rating, Barnyardgrass",barnyardgrass; [6],30
same,"Plant response rating (0 = no effect, 100 = complete control), Lambsquarters","lambsquarters; 62 g ai/ha, preemergence",95
same,"Plant response rating, Lambsquarters",lambsquarters; [7],100
C=CCNC(=O)c1cccc(NC(=O)c2sc(C(C)(C)C)nc2CC)c1 [Compound 207],Rice plant response rating,rice [1]; [3],30
same,Rice plant response rating,rice [1]; [4],45
same,Rice plant response rating,rice [1]; [5],50
same,"Plant response rating, Rice",rice [1]; [6],60
same,"Plant response rating, Pigweed",pigweed; [12],100
same,"Plant response rating, Pigweed",pigweed; [7],100
same,"Plant response rating, Pigweed",pigweed; [13],100
same,Pigweed plant response rating,pigweed; [14],100
same,Rice plant response rating (0 to 100 scale),"rice [2]; 125 g ai/ha, 0 = no effect, 100 = complete control",50
same,"Plant response rating, Rice",rice [2],70
same,"Plant response rating, Goosegrass",goosegrass; [12],10
same,"Plant response rating, Goosegrass",goosegrass; [7],60
same,"Plant response rating, Goosegrass",goosegrass; [13],80
same,Goosegrass plant response rating,goosegrass; [14],100
same,Pigweed plant response rating,redroot pigweed; [15],30
same,"Plant response rating, Pigweed",redroot pigweed; [16],45
same,Pigweed plant response rating,redroot pigweed; [17],100
same,Pigweed plant response rating,redroot pigweed; [18],100
same,"Crabgrass, Large plant response rating",large crabgrass; [15],20
same,"Plant response rating, Crabgrass, Large",large crabgrass; [16],65
same,"Crabgrass, Large plant response rating",large crabgrass; [17],90
same,"Crabgrass, Large plant response rating",large crabgrass; [18],95
same,"Plant response rating, Foxtail, Giant",giant foxtail; [12],0
same,"Plant response rating, Foxtail, Giant",giant foxtail; [7],0
same,"Plant response rating, Foxtail, Giant",giant foxtail; [13],10
same,"Foxtail, Giant plant response rating",giant foxtail; [14],100
same,Barnyardgrass plant response rating,barnyardgrass; [3],45
same,Barnyardgrass plant response rating,barnyardgrass; [4],65
same,Barnyardgrass plant response rating,barnyardgrass; [5],75
same,"Plant response rating, Barnyardgrass",barnyardgrass; [6],85
same,"Plant response rating, Lambsquarters",lambsquarters; [12],90
same,"Plant response rating, Lambsquarters",lambsquarters; [7],95
same,"Plant response rating, Lambsquarters",lambsquarters; [13],95
same,Lambsquarters plant response rating,lambsquarters; [14],95
